According to US20250129044A1 (priority 2021, published 2025):

Biological target: sodium channel isoforms (Homo sapiens, UniProt P35498)
Assay type: cell-based
Conditions: area under the sodium current trace, step from −120 mV to 0 mV, HEK cells
Protocol: The sodium channel isoforms of interest are stably expressed in Human Embryonic Kidney Cells and the currents that flow through those channels in response to a depolarizing voltage clamp step from −120 mV to 0 mV are measured in the presence of increasing concentrations of the chemical agents. The area under the sodium current trace which correlates to the magnitude of sodium flux through the cell membrane is used to quantify the effects on gating of the channels. Other parameters that are measured in the assay include the peak current, time constant of open state inactivation and the voltage dependence of steady state inactivation properties. The concentration responses are used to determine potency of each chemical agents effects on modulating the sodium channel isoform gating. Such techniques are known to those skilled in the art, and may be developed, using current technologies, into low or medium throughput assays for evaluating compounds for their ability to modulate sodium channel behaviour.

| SMILES | Empirical Emax | EC50 |
| --- | --- | --- |
| CC(C)c1ncc(C(=O)Nc2c(-c3ccccc3F)ccnc2C2CC(C(F)(F)F)C2)cn1 (stereo not shown) [Example 35, N-(4-(2-fluorophenyl)-2-(3-(trifluoromethyl)cyclobutyl)pyridin-3-yl)-2-isopropylpyrimidine-5-carboxamide] | +++ (+++ indicates a value from 5.0 up to 7.5 μM) |  |
| CC(C)c1ncc(C(=O)Nc2c(-c3ccccc3F)ccnc2C2CC(F)(F)C2)cn1 [Example 32, N-(2-(3,3-difluorocyclobutyl)-4-(2-fluorophenyl)pyridin-3-yl)-2-isopropylpyrimidine-5-carboxamide] | +++ (+++ indicates a value from 5.0 up to 7.5 μM) |  |
| O=C(Nc1ccc(Cl)nc1)c1c(-c2ccccc2F)ccnc1C1=CCCC1 [Example 50, N-(6-chloropyridin-3-yl)-2-(cyclopent-1-en-1-yl)-4-(2-fluorophenyl)nicotinamide] | + (+ indicates a value less than 2.0 μM) |  |
| CC(C)c1ncc(C(=O)Nc2c(-c3ccccc3)ccnc2C2CCOCC2)cn1 [Example 10, 2-isopropyl-N-(4-phenyl-2-(tetrahydro-2H-pyran-4-yl)pyridin-3-yl)pyrimidine-5-carboxamide] | ++ (++ indicates a value from 2.0 up to 5.0 μM) |  |
| CC(C)c1ncc(C(=O)Nc2c(-c3cc(F)ccc3F)ccnc2C2CCC(F)(F)CO2)cn1 (stereo not shown) [Example 9, N-[4-(2,5-difluorophenyl)-2-(5,5-difluorotetrahydropyran-2-yl)-3-pyridyl]-2-isopropyl-pyrimidine-5-carboxamide] | +++ (+++ indicates a value from 5.0 up to 7.5 μM) |  |
| CO[C@H]1CC[C@H](c2nccc(-c3ccccc3F)c2NC(=O)c2cnc(C(C)C)nc2)CC1 [Example 39] | + (+ indicates a value less than 2.0 μM) |  |
| CC(C)c1ncc(C(=O)Nc2c(-c3ccccc3F)ccnc2C2CCCCC2)cn1 [Example 17, N-[2-cyclohexyl-4-(2-fluorophenyl)-3-pyridyl]-2-isopropyl-pyrimidine-5-carboxamide] | +++ (+++ indicates a value from 5.0 up to 7.5 μM) |  |
| CC(C)c1ncc(C(=O)Nc2c(-c3ccccc3F)ccnc2[C@H]2CC[C@@H](C(F)(F)F)CC2)cn1 [Example 29, N-[4-(2-fluorophenyl)-2-[4-(trifluoromethyl)cyclohexyl]-3-pyridyl]-2-isopropyl-pyrimidine-5-carboxamide] | + (+ indicates a value less than 2.0 μM) |  |
| CN1C[C@H]2CC[C@@H](C1)N2c1ncc(C(=O)Nc2c(-c3cc(F)ccc3F)ccnc2C2CCC(F)(F)CC2)cn1 [Example 160, N-(2-(4,4-difluorocyclohexyl)-4-(2,5-difluorophenyl)pyridin-3-yl)-2-((1R,5S)-3-methyl-3,8-diazabicyclo[3.2.1]octan-8-yl)pyrimidine-5-carboxamide] |  | < 1000 nM |
| O=C(Nc1c(-c2cc(F)ccc2F)ccnc1C1CCC(F)(F)CC1)c1cnc(N2C3CCC2CC3)nc1 [Example 177, 2-(7-azabicyclo[2.2.1]heptan-7-yl)-N-(2-(4,4-difluorocyclohexyl)-4-(2,5-difluorophenyl)pyridin-3-yl)pyrimidine-5-carboxamide] |  | < 1000 nM |
| CC(C)c1ncc(C(=O)Nc2c(-c3ccccc3)ccnc2C2CCCN2C(=O)OC(C)(C)C)cn1 (racemic) [Example 13, (±)-tert-butyl 2-(3-(2-isopropylpyrimidine-5-carboxamido)-4-phenylpyridin-2-yl)pyrrolidine-1-carboxylate] | + (+ indicates a value less than 2.0 μM) |  |
| CC(C)Oc1ncc(C(=O)Nc2c(-c3ccccc3F)ccnc2C2CCC(F)(F)CC2)cn1 [Example 4, N-[2-(4,4-difluorocyclohexyl)-4-(2-fluorophenyl)-3-pyridyl]-2-isopropoxy-pyrimidine-5-carboxamide] | ++++ (++++ indicates a value greater than 7.5) |  |
| CC(C)c1ncc(C(=O)Nc2c(-c3ccccc3F)ccnc2C2CC3(C2)CC(F)(F)C3)cn1 [Example 19, N-[2-(2,2-difluorospiro[3.3]heptan-6-yl)-4-(2-fluorophenyl)-3-pyridyl]-2-isopropyl-pyrimidine-5-carboxamide] | ++ (++ indicates a value from 2.0 up to 5.0 μM) |  |
| CC(C)c1ncc(C(=O)Nc2c(-c3ccccc3)ccnc2C23CCOCC2C3)cn1 (racemic) [Example 12, (±)—N-(2-(3-oxabicyclo[4.1.0]heptan-6-yl)-4-phenylpyridin-3-yl)-2-isopropylpyrimidine-5-carboxamide] | + (+ indicates a value less than 2.0 μM) |  |
| CC(C)c1ncc(C(=O)Nc2c(-c3ccccc3)ccnc2C2CCCN2)cn1 (stereo not shown) [Example 40, 2-isopropyl-N-(4-phenyl-2-(pyrrolidin-2-yl)pyridin-3-yl)pyrimidine-5-carboxamide] | + (+ indicates a value less than 2.0 μM) |  |
| CC(C)c1ncc(C(=O)Nc2c(-c3ccccc3F)ccnc2[C@H]2CC[C@H](F)CC2)cn1 [Example 34] | +++ (+++ indicates a value from 5.0 up to 7.5 μM) |  |

| SMILES | Empirical Emax | EC50 |
| --- | --- | --- |
| CC(C)c1ncc(C(=O)Nc2c(-c3ccccc3F)ccnc2C2CCCC(F)(F)CC2)cn1 (racemic) [Example 37, (±)-N-(2-(4,4-difluorocycloheptyl)-4-(2-fluorophenyl)pyridin-3-yl)-2-isopropylpyrimidine-5-carboxamide] | +++ (+++ indicates a value from 5.0 up to 7.5 μM) |  |
| CC(C)c1ncc(C(=O)Nc2c(-c3ccccc3F)ccnc2C2CC3(C2)CC3(F)F)cn1 (stereo not shown) [Example 22, N-[2-(2,2-difluorospiro[2.3]hexan-5-yl)-4-(2-fluorophenyl)-3-pyridyl]-2-isopropyl-pyrimidine-5-carboxamide] | +++ (+++ indicates a value from 5.0 up to 7.5 μM) |  |
| CC(C)c1ncc(C(=O)Nc2c(-c3ccccc3F)ccnc2C2CC(F)(F)CCN2C)cn1 (racemic) [Example 43] | ++ (++ indicates a value from 2.0 up to 5.0 μM) |  |
| O=C(Nc1c(-c2cc(F)ccc2F)ccnc1C1CCC(F)(F)CC1)c1cnc(N2CC3CC(C2)O3)nc1 [Example 167, 2-(6-oxa-3-azabicyclo[3.1.1]heptan-3-yl)-N-(2-(4,4-difluorocyclohexyl)-4-(2,5-difluorophenyl)pyridin-3-yl)pyrimidine-5-carboxamide] |  | < 1000 nM |
| O=C(Nc1c(-c2cc(F)ccc2F)ccnc1C1CCC(F)(F)CC1)c1cnc(N2C3CCCC2CC3)nc1 [Example 165, 2-(8-azabicyclo[3.2.1]octan-8-yl)-N-(2-(4,4-difluorocyclohexyl)-4-(2,5-difluorophenyl)pyridin-3-yl)pyrimidine-5-carboxamide] |  | < 1000 nM |
| CC(C)c1ncc(C(=O)Nc2c(-c3ccccc3F)ccnc2C2CCC3(CC2)CC3)cn1 [Example 28, N-[4-(2-fluorophenyl)-2-spiro[2.5]octan-6-yl-3-pyridyl]-2-isopropyl-pyrimidine-5-carboxamide] | ++ (++ indicates a value from 2.0 up to 5.0 μM) |  |
| CC(C)c1ccc(NC(=O)c2c(-c3ccccc3F)ccnc2C2CCOCC2)cn1 [Example 53, 4-(2-fluorophenyl)-N-(6-isopropylpyridin-3-yl)-2-(tetrahydro-2H-pyran-4-yl)nicotinamide] | ++ (++ indicates a value from 2.0 up to 5.0 μM) |  |
| O=C(Nc1c(-c2ccccc2F)ccnc1C1CCC(F)(F)CC1)c1cnn(C2CCC2)c1 [Example 1, 1-cyclobutyl-N-[2-(4,4-difluorocyclohexyl)-4-(2-fluorophenyl)-3-pyridyl]pyrazole-4-carboxamide] | ++++ (++++ indicates a value greater than 7.5) |  |
| CC(C)c1ncc(C(=O)Nc2c(-c3ccccc3F)ccnc2C2CCCN2C)cn1 (racemic) [Example 42, (±)—N-(4-(2-fluorophenyl)-2-(1-methylpyrrolidin-2-yl)pyridin-3-yl)-2-isopropylpyrimidine-5-carboxamide] | + (+ indicates a value less than 2.0 μM) |  |
| CC(C)c1ncc(C(=O)Nc2c(-c3cc(F)ccc3F)ccnc2C2CCC(F)(F)CC2)cn1 [Example 6, N-[2-(4,4-difluorocyclohexyl)-4-(2,5-difluorophenyl)-3-pyridyl]-2-isopropyl-pyrimidine-5-carboxamide] | +++ (+++ indicates a value from 5.0 up to 7.5 μM) |  |
| CC(C)c1ncc(C(=O)Nc2c(-c3ccccc3F)ccnc2C2CC(F)(F)CCN2C(=O)OC(C)(C)C)cn1 (stereo not shown) [Example 20, tert-butyl 4,4-difluoro-2-[4-(2-fluorophenyl)-3-[(2-isopropylpyrimidine-5-carbonyl)amino]-2-pyridyl]piperidine-1-carboxylate] | + (+ indicates a value less than 2.0 μM) |  |
| Fc1ccc(F)c(-c2ccnc(C3CCC(F)(F)C3)c2-c2nc3c([nH]2)COCC3)c1 (stereo not shown) [Example 48, 2-(2-(3,3-difluorocyclopentyl)-4-(2,5-difluorophenyl)pyridin-3-yl)-3,4,6,7-tetrahydropyrano[3,4-d]imidazole] | +++ (+++ indicates a value from 5.0 up to 7.5 μM) |  |
| c1ccc(-c2ccnc(C3CCOCC3)c2-c2nc3c([nH]2)COCC3)cc1 [Example 45, 2-(4-phenyl-2-(tetrahydro-2H-pyran-4-yl)pyridin-3-yl)-3,4,6,7-tetrahydropyrano[3,4-d]imidazole] | + (+ indicates a value less than 2.0 μM) |  |
| C1=C(c2nccc(-c3ccccc3)c2-c2nc3c([nH]2)COCC3)CCOC1 [Example 44, 2-(2-(3,6-dihydro-2H-pyran-4-yl)-4-phenylpyridin-3-yl)-3,4,6,7-tetrahydropyrano[3,4-d]imidazole] | + (+ indicates a value less than 2.0 μM) |  |
| CC(C)c1ccc(NC(=O)c2c(-c3ccccc3F)ccnc2C2=CCOCC2)cn1 [Example 52] | + (+ indicates a value less than 2.0 μM) |  |
